Legend:
[1] = molecular target: T1, Serine protease 1 (Bos taurus) (UniProt P00760)
T1 sequence (whole entry): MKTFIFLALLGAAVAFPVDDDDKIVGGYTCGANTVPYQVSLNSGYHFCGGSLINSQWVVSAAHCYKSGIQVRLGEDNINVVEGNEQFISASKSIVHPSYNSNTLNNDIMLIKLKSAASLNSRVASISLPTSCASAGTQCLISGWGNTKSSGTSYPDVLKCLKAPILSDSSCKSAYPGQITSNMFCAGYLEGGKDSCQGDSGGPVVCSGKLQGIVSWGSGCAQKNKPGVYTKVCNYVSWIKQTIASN
Description: (§1) Trypsin inhibitory potency was evaluated from the catalytic constant Kcat.

[2] = molecular target: T1, Serine protease 1 (Bos taurus); remark: listed apart in the source
Description: as §1

Serine protease 1 [3] = molecular target: T2, Serine protease 1 (Bos taurus, UniProt P00760); experiment: Inhibitory activity against trypsin
T2 sequence (P00760 whole entry): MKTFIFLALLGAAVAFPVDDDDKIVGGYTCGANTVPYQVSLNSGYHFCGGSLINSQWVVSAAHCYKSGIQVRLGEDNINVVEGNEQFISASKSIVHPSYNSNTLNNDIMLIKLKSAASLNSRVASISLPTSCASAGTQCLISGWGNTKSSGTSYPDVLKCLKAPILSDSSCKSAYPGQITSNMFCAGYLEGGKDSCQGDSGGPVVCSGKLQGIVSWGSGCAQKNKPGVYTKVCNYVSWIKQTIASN

Serine protease 1 [4] = molecular target: T2, Serine protease 1; experiment: Inhibitory activity against trypsin mediated Tyr-Gly-Aer-p- nitroaniline
[5] = substrate: CC[C@H](C)[C@H](NC(=O)[C@H](CCCCN)NC(=O)CNC(=O)[C@H](Cc1ccc(O)cc1)NC(=O)[C@@H](N)Cc1ccc(O)cc1)C(=O)N[C@@H](Cc1ccc(O)cc1)C(=O)N[C@@H](CCCN=C(N)N)C(=O)N1CCC[C@H]1C(=O)N[C@@H](CC(=O)O)C(=O)N[C@@H](CCCCN)C(=O)N[C@@H](CCSC)C(=O)O; settings: Bos taurus
Description: Trypsin inhibitory potency was evaluated from the Michaelis-Menten constant KM.

CC[C@H](C)[C@H](NC(=O)[C@H](CCCCN)NC(=O)[C@H](C)NC(=O)CNC(=O)[C@H](Cc1ccc(O)cc1)NC(=O)[C@@H](N)Cc1ccc(O)cc1)C(=O)N[C@@H](Cc1ccc(O)cc1)C(=O)N[C@@H](C)C(=O)N1CCC[C@@H]1C(=O)N[C@@H](CC(=O)O)C(=O)N[C@@H](CCCCN)C(=O)N[C@@H](CCSC)C(=O)O
k cat [1]: 0.6 s⁻¹

CC[C@H](C)[C@H](NC(=O)[C@H](CCCN=C(N)N)NC(=O)[C@H](C)NC(=O)CNC(=O)[C@H](Cc1ccc(O)cc1)NC(=O)[C@@H](N)Cc1ccc(O)cc1)C(=O)N[C@@H](Cc1ccc(O)cc1)C(=O)N[C@@H](CCCN=C(N)N)C(=O)N1CCC[C@@H]1C(=O)N[C@@H](CC(=O)O)C(=O)N[C@@H](CCCCN)C(=O)N[C@@H](CCSC)C(=O)O
k cat [1]: 30 s⁻¹

H-YYGKIYRPDKM-OH
k cat [2]: 0.73 s⁻¹

H-YYGAKIYRPDKM-OH
IC50 (Serine protease 1 [3]): 10 µM | Ki (Serine protease 1 [4]): 9.4 µM

CC[C@H](C)[C@H](NC(=O)[C@H](CCCCN)NC(=O)[C@H](C)NC(=O)CNC(=O)[C@H](Cc1ccc(O)cc1)NC(=O)[C@@H](N)Cc1ccc(O)cc1)C(=O)N[C@@H](C)C(=O)N[C@@H](CCCN=C(N)N)C(=O)N1CCC[C@@H]1C(=O)N[C@@H](CC(=O)O)C(=O)N[C@@H](CCCCN)C(=O)N[C@@H](CCSC)C(=O)O
k cat [1]: 1.3 s⁻¹

H-YYGAKAYRPDKM-OH
k cat [1]: 87 s⁻¹

B1: Serine protease 1 (Bos taurus), P00760 (protein)
chain: MKTFIFLALLGAAVAFPVDDDDKIVGGYTCGANTVPYQVSLNSGYHFCGGSLINSQWVVSAAHCYKSGIQVRLGEDNINVVEGNEQFISASKSIVHPSYNSNTLNNDIMLIKLKSAASLNSRVASISLPTSCASAGTQCLISGWGNTKSSGTSYPDVLKCLKAPILSDSSCKSAYPGQITSNMFCAGYLEGGKDSCQGDSGGPVVCSGKLQGIVSWGSGCAQKNKPGVYTKVCNYVSWIKQTIASN
Km [5]: 24 mM
